Experimental data from US20090048269A1 (AstraZeneca AB, priority 2007, published 2009).

Biological target: T1, human ALK5 (Homo sapiens, UniProt P36897)
T1 sequence (P36897 162-503): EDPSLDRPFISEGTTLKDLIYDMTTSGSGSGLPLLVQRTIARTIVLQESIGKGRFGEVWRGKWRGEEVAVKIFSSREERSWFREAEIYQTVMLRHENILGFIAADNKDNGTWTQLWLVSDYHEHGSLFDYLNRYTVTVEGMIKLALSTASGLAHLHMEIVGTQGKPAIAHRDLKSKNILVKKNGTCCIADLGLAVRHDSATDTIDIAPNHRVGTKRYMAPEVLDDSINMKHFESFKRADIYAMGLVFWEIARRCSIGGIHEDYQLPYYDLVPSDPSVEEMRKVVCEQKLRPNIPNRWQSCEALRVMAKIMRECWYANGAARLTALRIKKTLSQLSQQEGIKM
Assay: ALK5 Enzyme Assay 2 (fluorescence polarisation probe displacement)
Format: binding
Parameters: 6His tagged human ALK5 (residues162-503) was grown and purified from insect cells; 6His; made in house; host or cells: insect cells
Conditions: read-out: EAA2: activity (μM) using Enzyme Assay 2
Description: The ability of a compound to bind and inhibit ALK5 can be measured by its capacity to displace a probe molecule from recombinant ALK5 in an in vitro assay. Provided the probe molecule is derivatised with a fluorescent probe or is fluorescent itself, the binding affinity can be measured using Fluorescence Polarisation (FP). […] Assay measurements were performed in 50 mM HEPES pH7.4, 10 mM MgCl2, 1 mM DTT, 0.01% CHAPS in a final assay volume of 12 μl. Briefly 6 μl of ALK5 protein, final concentration of 3 μg/mL, was added to each well of a 384 well assay plate containing 12 nL of each concentration of test compound dissolved in DMSO. 6 μL of a solution containing an ALK5 FP probe ((2Z)-3-(6-{4-[2-({4-[(6-chloro[1,3]dioxolo[4,5-b]pyridin-7-yl)amino]-5-(1-methylethoxy)quinazolin-7-yl}oxy)ethyl]piperazin-1-yl}-6-oxohexyl)-2-[(2E,4E)-5-(3-ethyl-1,1-dimethyl-6,8-disulfo-1H-benzo[e]indolium-2-yl)penta-2,4-dien-1-ylidene]-1,1-dimethyl-6-sulfo-2,3-dihydro-1H-benzo[e]indole-8-sulfonate), final concentration 50 nM, and ATP, final concentration 1 μM.

**Q.** With `CC(=O)Nc1ccc(Nc2cc(Oc3cc(C)c(C)nc3-c3ccccn3)ccn2)cc1` [Example 86, N-(4-{[4-(5,6-Dimethyl-2-pyridin-2-ylpyridin-3-yl)oxypyridin-2-yl]-amino}phenyl)acetamide] as the molecule, how does the IC50 read?
**A.** The IC50 was 0.00842 µM.

**Q.** With `Cc1ccc(Oc2ccnc(Nc3cccc(C(=O)N4CCCC(C(N)=O)C4)c3)c2)c(C)n1` (centres unmarked) [Example 68, 1-(3-{[4-(2,6-Dimethylpyridin-3-yl)oxypyridin-2-yl]amino}-benzoyl)piperidine-3-carboxamide] as the molecule, how does the IC50 read?
**A.** The IC50 was 0.00895 µM.

**Q.** Which IC50 does the source give for `CNC(=O)CN1CCN(Cc2cccc(Nc3cc(Oc4ccc(C)nc4C)ccn3)c2)CC1` [Example 191] here?
**A.** Its IC50 is 0.0213 µM.

**Q.** `Cc1ccc(Oc2ccnc(Nc3ccc(C(N)=O)cc3)c2)c(-c2ccco2)n1` [Example 162, 4-({4-[2-(Furan-2-yl)-6-methylpyridin-3-yl]oxypyridin-2-yl}-amino)benzamide] was tested. Which IC50 did it give?
**A.** The IC50 was 0.0204 µM.

**Q.** `Cc1ccc(Oc2ccnc(Nc3cccc(CN4CCN(C(=O)NC56CC7CC(CC(C7)C5)C6)CC4)c3)c2)c(C)n1` [Example 177] was tested. Which IC50 did it give?
**A.** Its IC50 is 0.0469 µM.

**Q.** With `Cc1ccc(Oc2ccnc(Nc3ccc(C(=O)NCCN4CCS(=O)(=O)CC4)cc3)c2)c(C)n1` [Example 215, 4-{[4-(2,6-Dimethylpyridin-3-yl)oxypyridin-2-yl]amino}-N-[2-(1,1-dioxo-1,4-thiazinan-4-yl)ethyl]benzamide] as the molecule, how does the IC50 read?
**A.** Its IC50 is 0.0362 µM.

**Q.** Which IC50 does the source give for `Cc1ccc(Oc2ccnc(Nc3cccc(CN4CCN(C(=O)C5CC5)CC4)c3)c2)c(C)n1` [Example 183, N-(3-{[4-(cyclopropylcarbonyl)piperazin-1-yl]methyl}phenyl)-4-[(2,6-dimethylpyridin-3-yl)oxy]pyridin-2-amine] here?
**A.** The IC50 was 0.0127 µM.

**Q.** `Cc1ccc(Oc2ccnc(Nc3ccccc3)c2)c(C(=O)NCc2ccccc2)n1` [Example 96, 3-(2-Anilinopyridin-4-yl)oxy-N-benzyl-6-methylpyridine-2-carboxamide] was tested. Which IC50 did it give?
**A.** The IC50 was 0.292 µM.

**Q.** How did the IC50 turn out when `Cc1ccc(Oc2ccnc(Nc3ccc(C(=O)NCCN4CCOCC4)cc3)c2)c(C)n1` [Example 220, 4-{[4-(2,6-Dimethylpyridin-3-yl)oxypyridin-2-yl]amino}-N-(2-morpholin-4-ylethyl)benzamide] was run?
**A.** Its IC50 is 0.0675 µM.

**Q.** For `Cc1ccc(Oc2ccnc(Nc3ccc(C(=O)NC4CCN(C)CC4)cc3)c2)c(C)n1` [Example 130, 4-[4-(2,6-Dimethylpyridin-3-yloxy)pyridin-2-ylamino]-N-(1-methylpiperidin-4-yl)benzamide], which IC50 is on record?
**A.** The IC50 was 0.0189 µM.

**Q.** Which IC50 does the source give for `Cc1cc(Oc2ccnc(Nc3ccc(C(=O)NCCN)cc3)c2)c(-c2ccccn2)nc1C` [Example 200, N-(2-Aminoethyl)-4-{[4-(5,6-dimethyl-2-pyridin-2-ylpyridin-3-yl)oxypyridin-2-yl]amino}benzamide] here?
**A.** Its IC50 is 0.00485 µM.

**Q.** `Cc1cc(Oc2ccnc(Nc3ccc(OCC(O)CNC(C)C)cc3)c2)c(-c2ccccn2)nc1C` (centres unmarked) [Example 75, 1-(4-{[4-(5,6-Dimethyl-2-pyridin-2-ylpyridin-3-yl)oxypyridin-2-yl]-amino}phenoxy)-3-(propan-2-ylamino)propan-2-ol] was tested. Which IC50 did it give?
**A.** The IC50 was 0.0136 µM.

**Q.** For `Cc1ccc(Oc2ccnc(Nc3cccc(CN4CCN(C(=O)CCN)CC4)c3)c2)c(C)n1` [Example 189, 3-Amino-1-{4-[(3-{[4-(2,6-dimethylpyridin-3-yl)oxypyridin-2-yl]-amino}phenyl)methyl]piperazin-1-yl}propan-1-one], which IC50 is on record?
**A.** The IC50 was 0.0262 µM.

**Q.** `Cc1ccc(Oc2ccnc(Nc3ccc(C(=O)NCCn4cccc4)cc3)c2)c(C)n1` [Example 216, 4-{[4-(2,6-Dimethylpyridin-3-yl)oxypyridin-2-yl]amino}-N-(2-pyrrol-1-ylethyl)benzamide] was tested. Which IC50 did it give?
**A.** Its IC50 is 0.108 µM.

**Q.** How did the IC50 turn out when `Cc1ccc(Oc2ccnc(Nc3cccc(C(=O)N(C4CC4)C4CCN(C)CC4)c3)c2)c(C)n1` [Example 59, N-Cyclopropyl-3-{[4-(2,6-dimethylpyridin-3-yl)oxypyridin-2-yl]-amino}-N-(1-methylpiperidin-4-yl)benzamide] was run?
**A.** The IC50 was 0.0214 µM.

**Q.** How did the IC50 turn out when `Cc1ccc(Oc2ccnc(Nc3ccc(S(=O)(=O)NCCN4CCOCC4)cc3)c2)c(C)n1` [Example 131, 4-[4-(2,6-Dimethylpyridin-3-yloxy)pyridin-2-ylamino]-N-(2-morpholinoethyl)benzenesulfonamide] was run?
**A.** The IC50 was 0.256 µM.

**Q.** How did the IC50 turn out when `Cc1cc(Oc2ccnc(Nc3cccc(CN4CCN(C)CC4)c3)c2)c(-c2ccccn2)nc1C` [Example 78, 4-(5,6-Dimethyl-2-pyridin-2-ylpyridin-3-yl)oxy-N-{3-[(4-methyl-piperazin-1-yl)methyl]phenyl}pyridin-2-amine] was run?
**A.** The IC50 was 0.0384 µM.

**Q.** Which IC50 does the source give for `Cc1ccc(Oc2ccnc(Nc3ccccn3)c2)c(-c2ccccc2)n1` [Example 150, 4-(6-Methyl-2-phenylpyridin-3-yl)oxy-N-pyridin-2-ylpyridin-2-amine] here?
**A.** The IC50 was 0.0047 µM.

**Q.** For `Cc1ccc(Oc2ccnc(Nc3ccc(S(=O)(=O)NCCN4CCS(=O)(=O)CC4)cc3)c2)c(C)n1` [Example 132, 4-{[4-(2,6-Dimethylpyridin-3-yl)oxypyridin-2-yl]amino}-N-[2-(1,1-dioxo-1,4-thiazinan-4-yl)ethyl]benzenesulfonamide], which IC50 is on record?
**A.** The IC50 was 0.142 µM.

**Q.** How did the IC50 turn out when `Cc1cc(Oc2ccnc(Nc3cccc(NS(C)(=O)=O)c3)c2)c(-c2ccccn2)nc1C` [Example 76, N-(3-{[4-(5,6-Dimethyl-2-pyridin-2-ylpyridin-3-yl)oxypyridin-2-yl]-amino}phenyl)methanesulfonamide] was run?
**A.** The IC50 was 0.0148 µM.

**Q.** Which IC50 does the source give for `CNS(=O)(=O)c1ccc(Nc2cc(Oc3ccc(C)nc3C)ccn2)cc1` [Example 108, 4-{[4-(2,6-Dimethylpyridin-3-yl)oxypyridin-2-yl]amino}-N-methylbenzenesulfonamide] here?
**A.** Its IC50 is 0.171 µM.

**Q.** `Cc1cc(Oc2ccnc(Nc3cccc(C(=O)NCc4ccncc4)c3)c2)c(-c2ccccn2)nc1C` [Example 100, 3-{[4-(5,6-Dimethyl-2-pyridin-2-ylpyridin-3-yl)oxypyridin-2-yl]-amino}-N-(pyridin-4-ylmethyl)benzamide] was tested. Which IC50 did it give?
**A.** The IC50 was 0.00576 µM.

**Q.** Which IC50 does the source give for `Cc1ccc(Oc2ccnc(Nc3cccc(CN4CCN(C)CC4)c3)c2)c(C)n1` [Example 193, 4-(2,6-Dimethylpyridin-3-yl)oxy-N-{3-[(4-methylpiperazin-1-yl)-methyl]phenyl}pyridin-2-amine] here?
**A.** The IC50 was 0.00427 µM.

**Q.** Which IC50 does the source give for `Cc1ccc(Oc2ccnc(Nc3ccc(CC#N)cc3)c2)c(-c2ccco2)n1` [Example 159, 2-[4-({4-[2-(Furan-2-yl)-6-methylpyridin-3-yl]oxypyridin-2-yl}-amino)phenyl]acetonitrile] here?
**A.** The IC50 was 0.00299 µM.

**Q.** With `Cc1ccc(Oc2ccnc(Nc3ccccc3)c2)c(C(=O)NCCc2ccccc2)n1` [Example 95, 3-(2-Anilinopyridin-4-yl)oxy-6-methyl-N-phenethylpyridine-2-carboxamide] as the molecule, how does the IC50 read?
**A.** The IC50 was 0.0209 µM.

**Q.** For `Cc1ccc(Oc2ccnc(Nc3ccccn3)c2)c(-c2ccco2)n1` [Example 161, 4-[2-(Furan-2-yl)-6-methylpyridin-3-yl]oxy-N-pyridin-2-yl-pyridin-2-amine], which IC50 is on record?
**A.** Its IC50 is 0.00855 µM.

**Q.** For `Cc1ccc(Oc2ccnc(Nc3cccc(C(=O)N(C)C)c3)c2)c(C)n1` [Example 62, 3-{[4-(2,6-Dimethylpyridin-3-yl)oxypyridin-2-yl]amino}-N,N-dimethylbenzamide], which IC50 is on record?
**A.** The IC50 was 0.0535 µM.

**Q.** How did the IC50 turn out when `Cc1ccc(Oc2ccnc(Nc3ccc(CC#N)cc3)c2)c(-c2ccccc2)n1` [Example 148, 2-(4-{[4-(6-Methyl-2-phenylpyridin-3-yl)oxypyridin-2-yl]-amino}phenyl)acetonitrile] was run?
**A.** Its IC50 is 0.0339 µM.

**Q.** How did the IC50 turn out when `Cc1cc(Oc2ccnc(Nc3cccc(C(=O)NCc4ccccn4)c3)c2)c(-c2ccccn2)nc1C` [Example 99, 3-{[4-(5,6-Dimethyl-2-pyridin-2-ylpyridin-3-yl)oxypyridin-2-yl]-amino}-N-(pyridin-2-ylmethyl)benzamide] was run?
**A.** Its IC50 is 0.00734 µM.
